Experimental data reported in patent US10844077B2, “Thiazolyl-containing compounds for treating proliferative diseases” (Dana-Farber Cancer Institute, Inc., priority 2014, dated 2020).

Columns and labels:
BTK = BTK (Homo sapiens (Human), UniProt Q06187); assay: BTK inhibitory activity; format: biochemical
HCK = HCK (Homo sapiens (Human), UniProt P08631); assay: HCK inhibitory activity; format: biochemical
BCWM.1 = assay: CellTiter-Glo Luminescent cell viability assay; format: cell-based; conditions: cell survival, 72 hours
Protocol: (§1) The inhibitory activities of exemplary compounds described herein against select protein kinases and cells were determined. Cell survival following treatment of exemplary compounds described herein was assessed by CellTiter-Glo® Luminescent cell viability assay (Promega). The cells were seeded into 384 well plates with the EL406 Combination Washer Dispenser (BioTek Instruments, Inc.), and a series diluted exemplary compounds (20˜0.0006 μM) were injected into the culture media with the JANUS Automated Workstation (PerkinElmer Inc.). The cells were treated for 72 hours at 37° C. with 5% CO2. Luminescent measurement is performed using the 2104 Envision® Multilabel Reader (PerkinElmer Inc.). EC50 values were calculated with […] PRISM software.

HBL-1 = assay: CellTiter-Glo Luminescent cell viability assay; format: cell-based; conditions: cell survival, 72 hours
Protocol: as §1

MWCL-1 = assay: CellTiter-Glo Luminescent cell viability assay; format: cell-based; conditions: cell survival, 72 hours
Protocol: as §1

OCI-Ly19 = assay: CellTiter-Glo Luminescent cell viability assay; format: cell-based; conditions: cell survival, 72 hours
Protocol: as §1

OCI-Ly3 = assay: CellTiter-Glo Luminescent cell viability assay; format: cell-based; conditions: cell survival, 72 hours
Protocol: as §1

Ramos = assay: CellTiter-Glo Luminescent cell viability assay; format: cell-based; conditions: cell survival, 72 hours
Protocol: as §1

TMD-8 = assay: CellTiter-Glo Luminescent cell viability assay; format: cell-based; conditions: cell survival, 72 hours
Protocol: as §1

OCI-Ly7 = assay: CellTiter-Glo Luminescent cell viability assay; format: cell-based; conditions: cell survival, 72 hours
Protocol: as §1

OPM-2 = assay: CellTiter-Glo Luminescent cell viability assay; format: cell-based; conditions: Homo sapiens, cell survival, 72 hours
Protocol: as §1

RPMI-8226 = assay: CellTiter-Glo Luminescent cell viability assay; format: cell-based; conditions: Homo sapiens, cell survival, 72 hours
Protocol: as §1

HCK, sequence (P08631 whole entry): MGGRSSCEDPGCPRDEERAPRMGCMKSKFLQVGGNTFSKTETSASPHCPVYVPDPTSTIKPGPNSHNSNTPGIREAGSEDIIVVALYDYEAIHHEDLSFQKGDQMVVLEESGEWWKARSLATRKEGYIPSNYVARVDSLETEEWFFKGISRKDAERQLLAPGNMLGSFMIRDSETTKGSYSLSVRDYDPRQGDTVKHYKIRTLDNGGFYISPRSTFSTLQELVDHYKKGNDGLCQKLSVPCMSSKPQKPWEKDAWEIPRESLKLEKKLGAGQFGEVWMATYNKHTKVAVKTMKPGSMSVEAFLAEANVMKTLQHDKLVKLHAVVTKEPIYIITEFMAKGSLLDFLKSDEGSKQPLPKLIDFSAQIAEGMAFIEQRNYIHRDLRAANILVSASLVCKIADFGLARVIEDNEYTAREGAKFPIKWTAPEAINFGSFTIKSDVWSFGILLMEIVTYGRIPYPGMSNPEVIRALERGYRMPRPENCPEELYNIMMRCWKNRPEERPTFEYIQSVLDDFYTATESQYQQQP
BTK, sequence (Q06187 whole entry, looked up): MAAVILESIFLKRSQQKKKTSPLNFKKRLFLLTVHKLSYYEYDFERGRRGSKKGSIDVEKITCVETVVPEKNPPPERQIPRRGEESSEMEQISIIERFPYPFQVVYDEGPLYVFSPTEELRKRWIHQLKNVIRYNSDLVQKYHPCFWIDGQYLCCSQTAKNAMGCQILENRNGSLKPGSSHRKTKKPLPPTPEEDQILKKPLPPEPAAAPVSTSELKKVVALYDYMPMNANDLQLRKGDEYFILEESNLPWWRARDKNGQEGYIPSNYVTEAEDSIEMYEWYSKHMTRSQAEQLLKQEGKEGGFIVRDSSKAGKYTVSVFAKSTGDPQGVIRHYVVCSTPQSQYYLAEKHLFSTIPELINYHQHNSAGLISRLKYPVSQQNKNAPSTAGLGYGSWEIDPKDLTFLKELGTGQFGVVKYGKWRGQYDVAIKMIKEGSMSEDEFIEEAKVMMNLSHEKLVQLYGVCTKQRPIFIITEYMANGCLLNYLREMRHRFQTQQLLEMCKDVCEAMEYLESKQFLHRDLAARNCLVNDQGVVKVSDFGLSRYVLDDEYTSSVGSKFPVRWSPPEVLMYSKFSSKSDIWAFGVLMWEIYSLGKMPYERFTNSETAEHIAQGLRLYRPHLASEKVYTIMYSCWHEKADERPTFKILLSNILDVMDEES

| IC50 (BTK) | SMILES | IC50 (HCK) | EC50 (BCWM.1) | EC50 (HBL-1) | EC50 (MWCL-1) | EC50 (OCI-Ly19) | EC50 (OCI-Ly3) | EC50 (Ramos) | EC50 (TMD-8) | EC50 (BCWM.1; BCWM1) | EC50 (HBL-1; HBL1) | EC50 (OCI-Ly19; Homo sapiens, OCI-LY19) | EC50 (OCI-Ly3; Homo sapiens, OCI-Ly3) | EC50 (OCI-Ly7; Homo sapiens, OCI-Ly7) | EC50 (OPM-2) | EC50 (RPMI-8226) | EC50 (Ramos; Homo sapiens, Ramos) | EC50 (TMD-8; Homo sapiens, TMD8) | EC50 (OCI-Ly7) |
| --- | --- | --- | --- | --- | --- | --- | --- | --- | --- | --- | --- | --- | --- | --- | --- | --- | --- | --- | --- |
| > 10 µM | c1ccc(Oc2ccc3nc(Nc4cnn(C5CCOCC5)c4)sc3n2)cc1 [III-8] | > 10 µM | 7.25 µM | > 20 µM | > 20 µM | 12.6 µM | – | > 20 µM | 14.6 µM | – | – | – | – | – | – | – | – | – | – |
| 0.367 µM | C=CC(=O)N1CCC[C@@H](Nc2nccc(Nc3nc4ccc(Oc5ccccc5)nc4s3)n2)C1 [III-4] | – | 0.808 µM | 2.55 µM | 2.16 µM | 1.17 µM | – | 2.19 µM | 2.12 µM | – | – | – | – | – | – | – | – | – | – |
| 0.0866 µM | C=CC(=O)N1CC[C@H](Nc2nccc(Nc3nc4ccc(Oc5ccccc5)nc4s3)n2)C1 [III-1] | – | 1.83 µM | 3.2 µM | 4.08 µM | 1.25 µM | – | 3.7 µM | 3.85 µM | – | – | – | – | – | – | – | – | – | – |
| 0.0194 µM | C=CC(=O)N1CCC[C@H](Nc2nccc(Nc3nc4ccc(Oc5ccccc5)nc4s3)n2)C1 [III-3] | – | 2.71 µM | 2.96 µM | 5.75 µM | 2.5 µM | – | 8.46 µM | 4.13 µM | – | – | – | – | – | – | – | – | – | – |
| 2.66 µM | c1ccc(Oc2ccc3nc(Nc4cnn(C5CCNCC5)c4)sc3n2)cc1 [III-9] | – | 8.29 µM | > 20 µM | 16.6 µM | 7.06 µM | – | 11.8 µM | 18.3 µM | – | – | – | – | – | – | – | – | – | – |
| 0.00906 µM | C=CC(=O)N1CCCCC(Nc2nccc(Nc3nc4ccc(Oc5ccccc5)nc4s3)n2)C1 (stereo not drawn) [III-5] | – | 1.19 µM | 0.896 µM | 3.37 µM | 1.33 µM | – | 2.72 µM | 1.23 µM | – | – | – | – | – | – | – | – | – | – |
| 0.281 µM | C=CC(=O)N1CC[C@@H](Nc2nccc(Nc3nc4ccc(Oc5ccccc5)nc4s3)n2)C1 [III-2] | – | 0.916 µM | 2.96 µM | 1.35 µM | 1.1 µM | – | 2.3 µM | 2.64 µM | – | – | – | – | – | – | – | – | – | – |
| > 10 µM | Cn1cc(Nc2nc3ccc(Oc4ccccc4)nc3s2)cn1 [III-7] | > 10 µM | > 20 µM | > 20 µM | > 20 µM | 9.52 µM | – | > 20 µM | > 20 µM | – | – | – | – | – | – | – | – | – | – |
| 2.58 µM | Cn1ccc(Nc2nc3ccc(Oc4ccccc4)nc3s2)n1 [III-6] | – | 0.27 µM | 0.45 µM | 2.17 µM | 0.321 µM | – | 0.749 µM | 0.467 µM | – | – | – | – | – | – | – | – | – | – |

Second part, the compound before the results:

| SMILES | IC50 (BTK) | IC50 (HCK) | EC50 (BCWM.1) | EC50 (HBL-1) | EC50 (MWCL-1) | EC50 (OCI-Ly19) | EC50 (OCI-Ly3) | EC50 (Ramos) | EC50 (TMD-8) | EC50 (BCWM.1; BCWM1) | EC50 (HBL-1; HBL1) | EC50 (OCI-Ly19; Homo sapiens, OCI-LY19) | EC50 (OCI-Ly3; Homo sapiens, OCI-Ly3) | EC50 (OCI-Ly7; Homo sapiens, OCI-Ly7) | EC50 (OPM-2) | EC50 (RPMI-8226) | EC50 (Ramos; Homo sapiens, Ramos) | EC50 (TMD-8; Homo sapiens, TMD8) | EC50 (OCI-Ly7) |
| --- | --- | --- | --- | --- | --- | --- | --- | --- | --- | --- | --- | --- | --- | --- | --- | --- | --- | --- | --- |
| CCC(=O)N1CC[C@H](Nc2nccc(Nc3ncc(C(=O)Nc4c(C)cccc4C)s3)n2)C1 [Compound I-9] | 0.0005 µM | < 0.000495 µM | 0.00984 µM | 0.22 µM | 0.025 µM | 10 µM | 14.5 µM | > 20 µM | 0.0709 µM | – | – | – | – | – | – | – | – | – | – |
| C=CC(=O)N1CC[C@H](Nc2nc(CN3CCOCC3)cc(Nc3ncc(C(=O)Nc4c(C)cccc4Cl)s3)n2)C1 [Compound I-1] | 0.00161 µM | – | 0.0734 µM | 0.522 µM | 0.05 µM | – | – | – | 0.301 µM | – | – | – | – | – | – | – | – | – | – |
| C=CC(=O)N1CCCC(Cn2ccc(Nc3ncc(C(=O)Nc4c(C)cccc4Cl)s3)n2)C1 (stereo not drawn) [II-2] | < 0.000495 µM | – | 0.196 µM | 1 µM | 0.166 µM | 6.54 µM | – | > 20 µM | 0.929 µM | – | – | – | – | – | – | – | – | – | – |
| C=CC(=O)N1CCC(CNc2nccc(Nc3ncc(C(=O)Nc4c(C)cccc4C)s3)n2)C1 (stereo not drawn) [Compound I-8] | < 0.000495 µM | < 0.000495 µM | 0.075 µM | 0.522 µM | 0.103 µM | 3.77 µM | – | 7.97 µM | 0.301 µM | – | – | – | – | – | – | – | – | – | – |
| Cc1nc(Nc2ncc(C(=O)Nc3c(C)cccc3Cl)s2)cc(N2CCN(CCO)CC2)n1 [Dasatinib, dasatinib, reference compound] | – | – | – | – | 0.00741 µM | – | – | – | – | 0.0012 µM | 0.19 µM | 3.86 µM | 8.06 µM | 0.155 µM | 7.11 µM | 5.39 µM | 4.56 µM | 0.0187 µM | – |
| C=CC(=O)N1CC[C@H](Nc2nccc(Nc3ncc(C(=O)Nc4c(C)cccc4C)s3)n2)C1 [Compound I-3] | 0.0006 µM | – | 0.0193 µM | 0.669 µM | 0.0552 µM | 13 µM | 39.5 µM | > 20 µM | 0.158 µM | – | – | – | – | – | – | – | – | – | 0.37 µM |
| C=CC(=O)N1CC[C@H](Nc2nccc(Nc3ncc(C(=O)Nc4c(C)cccc4Cl)s3)n2)C1 [Compound I-10] | 0.00174 µM | – | 0.17 µM | 1.64 µM | 0.191 µM | 5.7 µM | – | 0.012 µM | 1.01 µM | – | – | – | – | – | – | – | – | – | – |
| C=CC(=O)N1CC[C@H](Nc2nc(CN3CCOCC3)cc(Nc3ncc(C(=O)Nc4c(C)cccc4C)s3)n2)C1 [Compound I-2] | 0.00163 µM | – | 0.041 µM | 1.67 µM | 0.067 µM | > 20 µM | > 20 µM | > 20 µM | 0.311 µM | – | – | – | – | – | – | – | – | – | – |
| C=CC(=O)N1CCC[C@@H](Nc2nccc(Nc3ncc(C(=O)Nc4c(C)cccc4C)s3)n2)C1 [Compound I-6] | 0.0019 µM | – | 0.0696 µM | 0.229 µM | 0.0937 µM | – | – | – | 0.0802 µM | – | – | – | – | – | – | – | – | – | 0.52 µM |
| C=CC(=O)N1CCCC(Nc2nc(CN3CCOCC3)cc(Nc3ncc(C(=O)Nc4c(C)cccc4C)s3)n2)C1 (stereo not drawn) [Compound I-12] | – | – | 0.0755 µM | 1.2 µM | 0.317 µM | – | – | – | 0.453 µM | – | – | – | – | – | – | – | – | – | 0.309 µM |
| C=CC(=O)N1CCCCC(Nc2nccc(Nc3ncc(C(=O)Nc4c(C)cccc4C)s3)n2)C1 (stereo not drawn) [Compound I-7] | < 0.000495 µM | < 0.000495 µM | 0.022 µM | 0.07 µM | 0.019 µM | 0.399 µM | – | 0.133 µM | 0.049 µM | – | – | – | – | – | – | – | – | – | – |
| C=CC(=O)N1CC[C@@H](Nc2nccc(Nc3ncc(C(=O)Nc4c(C)cccc4C)s3)n2)C1 [Compound I-4] | 0.00138 µM | – | 0.053 µM | 0.449 µM | 0.085 µM | 4.27 µM | – | > 20 µM | 0.315 µM | – | – | – | – | – | – | – | – | – | – |
| C=CC(=O)N1CCCCC(Nc2nccc(Nc3ncc(C(=O)Nc4c(C)cccc4Cl)s3)n2)C1 (stereo not drawn) [Compound I-11] | 0.00552 µM | – | 0.129 µM | 0.623 µM | 0.245 µM | 3.68 µM | – | 1.58 µM | 0.5 µM | – | – | – | – | – | – | – | – | – | – |
| C=CC(=O)N1CCC(n2cc(Nc3ncc(C(=O)Nc4c(C)cccc4Cl)s3)cn2)CC1 [II-3] | 0.0199 µM | – | 0.69 µM | 3.65 µM | 0.772 µM | 9.97 µM | – | > 20 µM | 2.54 µM | – | – | – | – | – | – | – | – | – | – |
